Earlier results on one substance are cited in US4127527A, “Novel pentadecapeptides, intermediates therefor, and compositions and methods employing said pentadecapeptides” (priority 1977, dated 1978).

The subject of one series is rat. Particulars: injected directly into the brain of the rat; Belluzzi et al., Nature 260, 625 (1976).
The test system of series [1] is brain opiate receptor sites. The settings on record: natural peptide; Bradbury et al., Nature 260, 793 (1976).

For the substance “H-Tyr-Gly-Gly-Phe-Met-OH [methionine enkephalin]”, in the series on rat, the analgesic activity entry is given as “only weak analgesic agent of short duration”. For the same substance, in series [1], the “binding to partially purified brain opiate receptor sites” value is “binds stereo-specifically”.
